Assay results from US20250042891A1, “Compound containing structure of a heteroaromatic ring, pharmaceutical composition thereof and application thereof” (SHANGHAI YINGLI PHARMACEUTICAL CO., LTD, priority 2023, published 2025).

How the values were obtained:
PARG (389-976) = PARG (389-976) (Homo sapiens (Human), UniProt Q86W56); assay: PARG enzyme inhibition assay (TR-FRET); assay type: biochemical
Experimental: PARG in vitro assays were conducted in standard 384-well plates in a total volume of 15 μL. 5 μL of PARG (389-976) (manufactured by Chempartner Chemical Co., Ltd.) in buffer (50 mM Tris-HCL 7.5, 30 mM KCl, 1 mM EDTA, 3 mM DTT, tween-20 0.01%, BSA 0.025%) was added at a final concentration of 1.5 pM to the 384-well plates containing the compounds to be tested, which was incubated for 30 min at room temperature. To the above mixture was added 5 μL Bio PARylated His-TEV-PARP1(2-1014) substrate (manufactured by Chempartner Chemical Co., Ltd.) at a final concentration of 12 nM, after addition, the resulting mixture was incubated for 30 minutes at room temperature. Then to the mixture was added detection reagent (5 μL) which was buffered with 50 mM Tris-HCL 7.5, 30 mM KCl, 1 mM EDTA, 3 mM DTT, tween-20 0.01%, BSA 0.025%, and consisted of 3 μM of compound PDD00017273 and 9 nM Mab anti-6HIS XL665 (Cisbio: 61HISXLA) and 0.9 nM streptavidin affinity terbium cryptate (Cisbio:610SATLA), all at 3× working concentrations (final concentrations of 1 μM, 3 nM and 0.3 nM, respectively). After 120 min incubation in the dark at room temperature, TR-FRET signals were measured at Ex 340 and Em 665 and Em 615. The ratio for each well was calculated as Em 665/Em 615 and the compound inhibition rate was calculated based on the obtained data.

HCC1395 = assay: CTG assay for proliferation inhibition of cell lines; assay type: cell-based; details: HCC1395, 7 days, CellTiter Glo
Experimental: (§1) The assay was conducted on either 384-well plates or 96-well plates. The procedures are as follows:
(§2) The cell suspensions were added to 384- or 96-well plates (384-well plate: 50 μL; 96-well plate: 100 μL) except for peripheral wells. The plates were incubated in a carbon dioxide incubator overnight, HCC1395, HCC1428 and NCI-H460 were placed in a carbon dioxide incubator of 5%, […] overnight. Prepared compounds (10 concentration gradients by serial 3-fold dilution) were added to the wells using the HPD300 micro-dosing instrument. The cell plates were incubated in a carbon dioxide incubator for 7 days. HCC1395, HCC1428 and NCI-H460 were incubated in a 5%, 37° CO2 incubator. On the day of plate measurement, 384- or 96-well plates were first equilibrated at room temperature for 10-30 minutes, then to the 384- or 96-well plate was added CellTiter Glo reagent (384-well plate: 25 μL; 96-well plate: 100 μL), shaken for 10 minutes away from light, and incubated for 10 minutes. The incubated plates were placed into Victor NIVO reader plates, and the pharmacodynamic inhibition curves were plotted and IC50 values were calculated using XLFit.

HCC1428 = assay: as above; assay type: cell-based; details: HCC1428, 7 days, CellTiter Glo
Experimental: as §1, §2

[1] = class symbol, Bio PARylated His-TEV-PARP1 substrate, TR-FRET
[2] = numeric value in parentheses under the class symbol

Sequence of PARG (389-976) (Q86W56 389-976): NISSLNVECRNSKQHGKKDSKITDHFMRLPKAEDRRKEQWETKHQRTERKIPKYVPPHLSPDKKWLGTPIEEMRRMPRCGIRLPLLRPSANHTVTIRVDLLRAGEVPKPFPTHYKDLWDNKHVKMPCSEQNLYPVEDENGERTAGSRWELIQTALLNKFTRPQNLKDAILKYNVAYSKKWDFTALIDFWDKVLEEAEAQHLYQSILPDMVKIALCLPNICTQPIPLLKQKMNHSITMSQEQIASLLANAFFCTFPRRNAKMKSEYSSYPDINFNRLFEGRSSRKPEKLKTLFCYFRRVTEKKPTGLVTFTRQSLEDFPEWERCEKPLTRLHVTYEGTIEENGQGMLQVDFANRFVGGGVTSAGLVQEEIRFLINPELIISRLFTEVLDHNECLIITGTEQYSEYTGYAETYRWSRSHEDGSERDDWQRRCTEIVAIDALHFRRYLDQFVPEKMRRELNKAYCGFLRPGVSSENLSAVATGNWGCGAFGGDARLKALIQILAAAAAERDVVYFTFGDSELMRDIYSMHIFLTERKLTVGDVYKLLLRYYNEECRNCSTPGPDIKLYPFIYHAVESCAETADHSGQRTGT

IC50 (PARG (389-976); [1]) [nM] | IC50 (HCC1395) [µM] | IC50 (HCC1428) [µM] | IC50 (PARG (389-976); [2]) [nM] | Structure (SMILES)
100 to 1000 |  |  |  | CC(C)S(=O)(=O)c1ccc(-c2cc(S(=O)(=O)NC3(C#N)CC3)cc3c(-c4nnc(C(F)F)s4)nn(C)c23)nc1 [Compound 63]
< 1 |  |  |  | Cn1nc(-c2nnc(C(F)F)s2)c2cc(S(=O)(=O)NC3(C#N)CC3)cc(C3=CCN(S(=O)(=O)C4CC4)CC3)c21 [Compound 11]
10 to 100 |  |  |  | CC(C)S(=O)(=O)N1CC=C(c2cc(S(=O)(=O)NC3(C#N)CC3)cc3c2nnn3-c2nnc(C(F)(F)F)s2)CC1 [Compound 80]
< 1 |  |  |  | CC(C)S(=O)(=O)N1CCN(c2cc(S(=O)(=O)NC3(C#N)CC3)cc3c(-c4nnc(C(F)(F)F)s4)nn(C)c23)C=N1 [Compound 85]
< 1 | 1.63 | 1.68 |  | CC(C)S(=O)(=O)N1CC=C(c2cc(S(=O)(=O)NC3(C#N)CC3)cc3c(-c4nnc(C(F)(F)F)s4)nn(CC4CNC4)c23)CC1 [Compound 61]
10 to 100 |  |  |  | CC(C)S(=O)(=O)N1CCC(c2cc(S(=O)(=O)NC3(C#N)CC3)cc3c(-c4nnc(C(F)(F)F)s4)nn(C)c23)=C(C(=O)O)C1 [Compound 54]
< 1 | 0.0462 | 0.0576 |  | CC(C)S(=O)(=O)N1CCC(c2cc(S(=O)(=O)NC3(C#N)CC3)cc3c(-c4nnc(C(F)(F)F)s4)nn(C)c23)=C(CO)C1 [Compound 73]
10 to 100 |  |  |  | CC(C)SC1CC=C(c2cc(S(=O)(=O)NC3(C#N)CC3)cc3c(-c4nnc(C(F)F)s4)nn(C)c23)CC1 (centres unmarked) [Compound 29]
< 1 |  | 0.203 |  | CC(C)S(=O)(=O)N1CC=C(c2cc(S(=O)(=O)NC3(C#N)CC3)cc3c(-c4nnc(C(F)F)s4)nn(C)c23)C(F)(F)C1 [Compound 67]
< 1 |  |  | 0.2 | COCCn1nc(-c2nnc(C(F)F)s2)c2cc(S(=O)(=O)NC3(C#N)CC3)cc(C3=CCN(S(=O)(=O)C(C)C)CC3)c21 [Compound 1]
100 to 1000 |  |  |  | CC(C)S(=O)(=O)c1ncc(-c2cc(S(=O)(=O)NC3(C#N)CC3)cc3c(-c4nnc(C(F)F)s4)nn(C)c23)cn1 [Compound 43]
1 to 10 |  |  |  | CC(C)[S+]([O-])c1ncc(-c2cc(S(=O)(=O)NC3(C#N)CC3)cc3c(-c4nnc(C(F)F)s4)nn(C)c23)cn1 (centres unmarked) [Compound 42]
1 to 10 |  | 1.91 |  | CC(C)S(=O)(=O)c1ccc(-c2cc(S(=O)(=O)NC3(C#N)CC3)cc3c(-c4nnc(C(F)(F)F)s4)nn(C)c23)cn1 [Compound 47]
< 1 | 0.392 | 0.207 |  | CC(C)S(=O)(=O)N1CC=C(c2cc(S(=O)(=O)NC3(C#N)CC3)cc3c(-c4noc(C(F)(F)F)n4)nn(C)c23)CC1 [Compound 53]
1 to 10 |  | 2.52 |  | Cn1nc(-c2nnc(C(F)(F)F)s2)c2cc(S(=O)(=O)NC3(C#N)CC3)cc(C3=CCN(S(=O)(=O)c4cccnc4)CC3)c21 [Compound 51]
< 1 |  | 1.7 |  | CC(C)[S+]([O-])c1ccc(-c2cc(S(=O)(=O)NC3(C#N)CC3)cc3c(-c4nnc(C(F)(F)F)s4)nn(C)c23)cn1 (centres unmarked) [Compound 46]
1 to 10 |  |  |  | CC(C)S(=O)(=O)N1CCC(O)(c2cc(S(=O)(=O)NC3(C#N)CC3)cc3c(-c4nnc(C(F)F)s4)n[nH]c23)CC1 [Compound 27]
1 to 10 |  |  |  | CC(C)S(=O)(=O)N1CC=C(c2cc(S(=O)(=O)NC3(C#N)CC3)cc3c(-c4nnc(C(F)F)s4)csc23)CC1 [Compound 10]
10 to 100 |  |  |  | CC(C)S(=O)(=O)N1CC=C(c2cc(S(=O)(=O)NC3(C#N)CC3)cc3c(-c4nnc(C(F)(F)F)s4)nn(Cc4ccccc4)c23)CC1 [Compound 62]
1 to 10 | 1.38 | 1.06 |  | CC(C)S(=O)(=O)N1Cc2cn(-c3cc(S(=O)(=O)NC4(C#N)CC4)cc4c(-c5nnc(C(F)F)s5)nn(C)c34)nc2C1 [Compound 52]

IC50 (PARG (389-976); [1]) [nM] | IC50 (HCC1395) [µM] | IC50 (HCC1428) [µM] | IC50 (PARG (389-976); [2]) [nM] | Structure (SMILES)
< 1 | 0.0352 |  |  | CC1=C(c2cc(S(=O)(=O)NC3(C#N)CC3)cc3c(-c4nnc(C(F)(F)F)s4)nn(C)c23)CCN(S(=O)(=O)C(C)C)C1 [Compound 75]
1 to 10 |  |  |  | CC(C)S(=O)(=O)N1CC=C(c2cc(S(=O)(=O)NC3(C#N)CC3)cc3c(-c4nnc(C(F)F)s4)nn(CC(N)=O)c23)CC1 [Compound 66]
1 to 10 |  |  |  | CC(C)CS(=O)(=O)N1CC=C(c2cc(S(=O)(=O)NC3(C#N)CC3)cc3c(-c4nnc(C(F)F)s4)nn(C)c23)CC1 [Compound 13]
100 to 1000 |  |  |  | CC(C)S(=O)(=O)N1CC=C(c2cc(S(=O)(=O)NC3(C#N)CC3)cc3c(-c4cc(C(F)(F)F)nn4C)nn(C)c23)CC1 [Compound 81]
< 1 |  | 0.0882 |  | CC(C)S(=O)(=O)N1CCC(c2cc(S(=O)(=O)NC3(C#N)CC3)cc3c(-c4nnc(C(F)(F)F)s4)nn(C)c23)=C(C#N)C1 [Compound 64]
100 to 1000 |  |  |  | CC(C)Sc1ncc(-c2cc(S(=O)(=O)NC3(C#N)CC3)cc3c(-c4nnc(C(F)F)s4)nn(C)c23)cn1 [Compound 41]
1 to 10 |  |  |  | CC(C)S(=O)(=O)N1CCC(O)(c2cc(S(=O)(=O)NC3(C#N)CC3)cc3c(-c4nnc(C(F)F)s4)nn(C)c23)CC1 [Compound 28]
1 to 10 |  |  |  | Cc1cc(Cn2c(=O)n(Cc3cnc(C)s3)c(=O)c3cc(S(=O)(=O)NC4(C)CC4)ccc32)n(C)n1 [PDD 00017273, reference compound]
1 to 10 |  |  |  | CC(C)S(=O)(=O)N1CCC=C(c2cc(S(=O)(=O)NC3(C#N)CC3)cc3c(-c4nnc(C(F)F)s4)nn(C)c23)C1 [Compound 4]
< 1 | 0.442 |  |  | CC(C)S(=O)(=O)N1CC=C(c2cc(S(=O)(=O)NC3(C#N)CC3)cc3c(-c4nnc(C(F)F)o4)nn(C)c23)CC1 [Compound 6]
< 1 |  | 0.413 | 0.27 | COCCn1nc(-c2nnc(C(F)F)s2)c2cc(S(=O)(=O)NC3(C#N)CC3)cc(N3CCN(S(=O)(=O)C(C)C)CC3)c21 [Compound 2]
100 to 1000 |  |  |  | CC(C)S(=O)(=O)c1ccc(-c2cc(S(=O)(=O)NC3(C#N)CC3)cc3c(-c4nnc(C(F)(F)F)s4)nn(C)c23)nc1 [Compound 49]
10 to 100 |  |  |  | CC(C)S(=O)(=O)N1CC=C(c2cc(S(=O)(=O)NC3(C(N)=O)CC3)cc3c(-c4nnc(C(F)(F)F)s4)nn(C)c23)CC1 [Compound 57]
10 to 100 |  |  |  | CC(C)S(=O)(=O)N1CCC(c2cc(S(=O)(=O)NC3(C#N)CC3)cc3c(-c4nnc(C(F)F)s4)nn(C)c23)=C(C(=O)O)C1 [Compound 34]
1 to 10 |  |  |  | CC(C)S(=O)(=O)N1CC=C(c2cc(S(=O)(=O)NC3(C(N)=O)CC3)cc3c(-c4nnc(C(F)F)s4)nn(C)c23)CC1 [Compound 17]
10 to 100 |  | 2.33 |  | Cn1nc(-c2nnc(C(F)(F)F)s2)c2cc(S(=O)(=O)NC3(C#N)CC3)cc(C3=CCN(S(=O)(=O)c4ccccc4)CC3)c21 [Compound 50]
1 to 10 |  |  |  | CC(C)S(=O)(=O)N1CCN(c2cc(S(=O)(=O)NC3(C#N)CC3)cc3c2cnn3-c2nnc(C(F)F)s2)CC1 [Compound 8]
1 to 10 |  |  |  | CC(C)S(=O)(=O)N1CC=C(c2cc(S(=O)(=O)NC3(C#N)CC3)cc3c2ccn3-c2nnc(C(F)(F)F)s2)CC1 [Compound 65]
< 1 |  | 0.47 |  | CC(C)S(=O)(=O)N1CCC(c2cc(S(=O)(=O)NC3(C#N)CC3)cc3c(-c4nnc(C(F)F)s4)nn(C)c23)=C(F)C1 [Compound 68]

Structure (SMILES) | IC50 (PARG (389-976); [1]) [nM] | IC50 (HCC1395) [µM] | IC50 (HCC1428) [µM] | IC50 (PARG (389-976); [2]) [nM]
CN(C)S(=O)(=O)N1CCN(c2cc(S(=O)(=O)NC3(C#N)CC3)cc3c(-c4nnc(C(F)F)s4)nn(C)c23)CC1 [Compound 3] | 1 to 10 | 0.386 |  | 1.64
